# According to article PMC6540056, “A Thermostable Aspergillus fumigatus GH7 Endoglucanase Over-Expressed in Pichia pastoris Stimulates Lignocellulosic Biomass Hydrolysis” (International Journal of Molecular Sciences, 2019):
# Target: T1, Af-EGL7 (Aspergillus fumigatus, UniProt Q4WCM9)
# T1 construct: gene AFUA_6G01800; ORF without predicted signal peptide in pPICZalphaA, alpha-factor secretion signal, C-terminal vector tag with His6 kept, from Pichia pastoris X-33, N-glycosylated, about 70 kDa on SDS-PAGE; forward primer encodes EF-QQPAA at N-terminus
# T1 sequence (Q4WCM9 21-460): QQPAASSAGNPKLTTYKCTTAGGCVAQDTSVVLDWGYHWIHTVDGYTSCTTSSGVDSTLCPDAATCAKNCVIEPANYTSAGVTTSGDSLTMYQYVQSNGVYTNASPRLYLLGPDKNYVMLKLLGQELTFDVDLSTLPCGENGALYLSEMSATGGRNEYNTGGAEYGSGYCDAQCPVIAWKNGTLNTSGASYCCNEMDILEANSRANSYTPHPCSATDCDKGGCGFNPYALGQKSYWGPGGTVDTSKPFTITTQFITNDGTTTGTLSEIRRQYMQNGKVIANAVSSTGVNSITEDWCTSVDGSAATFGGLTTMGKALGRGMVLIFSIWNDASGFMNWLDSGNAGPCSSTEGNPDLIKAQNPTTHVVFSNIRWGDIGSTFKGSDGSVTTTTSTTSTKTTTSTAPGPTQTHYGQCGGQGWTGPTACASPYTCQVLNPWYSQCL
# Assay: colorimetric, Azo-Xyloglucan hydrolysis, […] nm
# Type: biochemical
# Conditions: read-out: % inhibition at 50 mM
compound,measurement,value
OC[C@H]1O[C@@H](O[C@H]2[C@H](O)[C@@H](O)C(O)O[C@@H]2CO)[C@H](O)[C@@H](O)[C@@H]1O (stereo partly shown) [cellobiose],inhibition at 50000 µM,35%
